According to ChEMBL document CHEMBL1649347, “Clerodane diterpenes from Casearia arguta that act as synergistic TRAIL sensitizers” (J Nat Prod, 2010):

Tests used:
ACHN [1] = assay: Ratio of EC50 for TRAIL-resistant human ACHN cells to EC50 for TRAIL-resistant human ACHN cells in presence of TRAIL; format: functional
ACHN [2] = assay: Cytotoxicity against TRAIL-resistant human ACHN cells assessed as cell killing after 20 to 24 hrs; format: functional, cell-based
ACHN [3] = assay: Cytotoxicity against TRAIL-resistant human ACHN cells assessed as cell killing after 20 to 24 hrs in presence of TRAIL; format: functional, cell-based

| SMILES | Ratio EC50 (ACHN [1]) | EC50 (ACHN [2]) | EC50 (ACHN [3]) |
| --- | --- | --- | --- |
| C=C/C(C)=C/C[C@]1(C)[C@H](C)C[C@@H](O)[C@@]23C(=C[C@H](OC(=O)/C=C\C=C\CCCCC)C[C@@H]12)[C@@H](OC(C)=O)O[C@H]3OC(C)=O [ARGUTIN A] | 2.3 | 5.4 µM | 2.4 µM |
| C=C/C(C)=C/C[C@]1(C)[C@H](C)C[C@@H](OC(=O)/C=C/C=C/CCCCC)[C@@]23C(=C[C@H](O)C[C@@H]12)[C@@H](OC(C)=O)O[C@H]3OC(C)=O [ARGUTIN B] | 3 | 13.8 µM | 4.6 µM |
| C=C/C(C)=C/C[C@]1(C)[C@H](C)[C@@H](O)[C@@H](O)[C@@]23C(=C[C@H](OC(=O)/C=C\C=C\CCCCC)C[C@@H]12)[C@@H](OC(C)=O)O[C@H]3OC(C)=O [ARGUTIN C] | 1.9 | 3.1 µM | 1.6 µM |
| C=C/C(C)=C/C[C@]1(C)[C@H](C)[C@@H](O)[C@@H](OC(=O)/C=C/C=C/CCCCC)[C@@]23C(=C[C@H](O)C[C@@H]12)[C@@H](OC(C)=O)O[C@H]3OC(C)=O [ARGUTIN D] | 1.6 | 14.3 µM | 8.7 µM |
| C=C/C(C)=C/C[C@]1(C)[C@H](C)[C@@H](O)C[C@@]23C(=C[C@H](OC(=O)/C=C\C=C\CCCCC)C[C@@H]12)[C@@H](OC(C)=O)O[C@H]3OC(C)=O [ARGUTIN E] | 1.5 | 3.3 µM | 2.2 µM |
| C=CC(=C)[C@@H](C[C@]1(C)[C@H](C)C[C@@H](O)[C@@]23C(=C[C@H](OC(=O)/C=C\C=C\CCCCC)C[C@@H]12)[C@@H](OC(C)=O)O[C@H]3OC(C)=O)OO [ARGUTIN F] | 1.5 | 10.4 µM | 7.1 µM |
| C=CC(=C)[C@@H](C[C@]1(C)[C@H](C)[C@@H](O)[C@@H](O)[C@@]23C(=C[C@H](OC(=O)/C=C\C=C\CCCCC)C[C@@H]12)[C@@H](OC(C)=O)O[C@H]3OC(C)=O)OO [ARGUTIN G] | 1.5 | 4.2 µM | 2.8 µM |
